According to patent US20220339136A1, “LIPOSOMAL TROPONOID COMPOUND FORMULATIONS” (United States Government As Represented By The Department …, priority 2019, published 2022):

Key:
[1] = tested on: Vancomycin Intermediate Staphylococcus aureus (VISA) strain AR228; details: cited from earlier work; note: key: R: resistance; S: sensitive; I: intermediate; NS: nonsusceptible
[2] = tested on: WT S. aureus (ATCC 25923); details: cited from earlier work
[3] = tested on: Vancomycin Intermediate Staphylococcus aureus (VISA) strain AR219; details: cited from earlier work; note: key: R: resistance; S: sensitive; I: intermediate; NS: nonsusceptible
S. aureus [4] = details: cited from earlier work
Solubility = type: physicochemical
S. aureus [5] = details: 4×MIC, in vitro; cited from earlier work
[6] = tested on: Sa #10, mupirocin-resistant MDRSA; assay: Killing of drug-resistant bacteria Sa #10; type: cell-based, Staphylococcus aureus; details: troponoids formulated as liposomes
[7] = insoluble as defined herein (less than 10 mg/l); cited from earlier work
mammal cell lines = details: cited from earlier work
[8] = tested on: multidrug-resistant Staphylococcus. aureus (MDRSA), including methicillin-resistant S. aureus (MRSA) strains; details: cited from earlier work

## CC[C@H]1OC(=O)[C@H](C)[C@@H](O[C@H]2C[C@@](C)(OC)[C@@H](O)[C@H](C)O2)[C@H](C)[C@@H](O[C@@H]2O[C@H](C)C[C@H](N(C)C)[C@H]2O)[C@](C)(O)C[C@@H](C)C(=O)[C@H](C)[C@@H](O)[C@]1(C)O [ERY, Erthromycin]
[1]
  Antimicrobial susceptibility testing pattern (AST): R
[2]
  Antimicrobial susceptibility testing pattern (AST): S
[3]
  Antimicrobial susceptibility testing pattern (AST): R

## CO[C@@]1(NC(=O)Cc2cccs2)C(=O)N2C(C(=O)O)=C(COC(N)=O)CS[C@@H]21 [FOX, Cefoxitin]
[1]
  Antimicrobial susceptibility testing pattern (AST): R
[2]
  Antimicrobial susceptibility testing pattern (AST): Neg
[3]
  Antimicrobial susceptibility testing pattern (AST): R

## CC(=O)NC[C@H]1CN(c2ccc(N3CCOCC3)c(F)c2)C(=O)O1 [LZD, Linezolid]
[1]
  Antimicrobial susceptibility testing pattern (AST): S
[2]
  Antimicrobial susceptibility testing pattern (AST): S
[3]
  Antimicrobial susceptibility testing pattern (AST): S

## C/C(=C\C(=O)OCCCCCCCCC(=O)O)C[C@@H]1OC[C@H](C[C@@H]2O[C@H]2[C@@H](C)[C@H](C)O)[C@@H](O)[C@H]1O [MUP, Mupirocin]
[1]
  Antimicrobial susceptibility testing pattern (AST): R

## Cc1onc(-c2ccccc2)c1C(=O)N[C@@H]1C(=O)N2[C@@H]1SC(C)(C)[C@@H]2C(=O)O [OXA, Oxacillin]
[1]
  Antimicrobial susceptibility testing pattern (AST): R
[2]
  Antimicrobial susceptibility testing pattern (AST): S
[3]
  Antimicrobial susceptibility testing pattern (AST): R

## CO[C@H]1/C=C/O[C@@]2(C)Oc3c(C)c(O)c4c(O)c(c(/C=N/N5CCN(C)CC5)c(O)c4c3C2=O)NC(=O)/C(C)=C\C=C\[C@H](C)[C@H](O)[C@@H](C)[C@@H](O)[C@@H](C)[C@H](OC(C)=O)[C@@H]1C [RIF, Rifampin]
[1]
  Antimicrobial susceptibility testing pattern (AST): S
[2]
  Antimicrobial susceptibility testing pattern (AST): S
[3]
  Antimicrobial susceptibility testing pattern (AST): R

## CN[C@H](CC(C)C)C(=O)N[C@H]1C(=O)N[C@@H](CC(N)=O)C(=O)N[C@H]2C(=O)N[C@H]3C(=O)N[C@H](C(=O)N[C@H](C(=O)O)c4cc(O)cc(O)c4-c4cc3ccc4O)[C@H](O)c3ccc(c(Cl)c3)Oc3cc2cc(c3O[C@@H]2O[C@H](CO)[C@@H](O)[C@H](O)[C@H]2O[C@H]2C[C@](C)(N)[C@H](O)[C@H](C)O2)Oc2ccc(cc2Cl)[C@H]1O [VAN, Vancomycin]
[1]
  Antimicrobial susceptibility testing pattern (AST): I
[2]
  Antimicrobial susceptibility testing pattern (AST): S
[3]
  Antimicrobial susceptibility testing pattern (AST): I

## COc1ccccc1C(=O)Oc1cccccc1=O [compound 285]
S. aureus [4]
  MIC: less than 5 μg/mL
Solubility; DMSO, Gentamicin at 10 mg/mL
  solubility in DMSO: can be dissolved
Solubility; water
  solubility in water: not quite soluble
S. aureus [5]
  incubation time to completely kill S. aureus: 5 to 8 h
[6]
  killing of mupirocin-resistant MDRSA Sa #10: can kill
[7]
  solubility in water (reportedly): insoluble
Mammal cell lines
  CC50: > 100 µM
[8]
  inhibition of MDRSA including MRSA strains: can inhibit

## Daptomyxin
[2]
  Antimicrobial susceptibility testing pattern (AST): S

## Gentamicin
[1]
  Antimicrobial susceptibility testing pattern (AST): S
[2]
  Antimicrobial susceptibility testing pattern (AST): S
[3]
  Antimicrobial susceptibility testing pattern (AST): R

## Penicillin
[1]
  Antimicrobial susceptibility testing pattern (AST): R
[3]
  Antimicrobial susceptibility testing pattern (AST): R

## Trimethoprim-sulfamethoxazole [SXT]
[1]
  Antimicrobial susceptibility testing pattern (AST): S
[2]
  Antimicrobial susceptibility testing pattern (AST): S
[3]
  Antimicrobial susceptibility testing pattern (AST): S
